From patent US8034373B2, “Methods and compositions for reducing oxidative stress in an animal” (Nestec S. A., priority 2004, dated 2011)
Marks after values point to notes of the source that are not given here.

What was measured:
[1] = Plasma Vitamin E in exercising sled dogs
Method: (§1) Three groups of twelve dogs (mixed breed Alaskan sled dogs (husky pointer crosses)) were fed commercially available Pro Plan® Performance chicken and rice formula dog food as a basal diet, and each group was fed either: a placebo consisting of about 0.5 g maltodextrin, about 2 mg astaxanthin, or about 400 mg Vitamin E (alpha-tocopherol). Pro Plan® dog food is available from Nestlé Purina Pet Care Company in St. Louis, Mo. The dogs were trained three times a week on an exercise wheel for a period of six weeks. On the sixth week, the dogs rested for four days and then exercised three days in a row. Blood samples were collected before exercise on day one, immediately after exercise on day three, and at 24 hours and 48 hours after exercise. Plasma from the blood samples was analyzed for concentrations of malondialdehyde, F-2 isoprostanes, Vitamin E, creatine kinase activity as well as oxygen radical absorption capacity (ORAC).
(§2) All the dogs were maintained on the same basal diet (Purina Pro Plan® Performance chicken and rice formula) for one month prior to the onset and the entire duration of the experiment. Each dog was fed as an individual to maintain an optimal body condition score of 4/10.
(§3) Thirty-six sled dogs were housed at the Nestle Purina facility in Salcha, Ak. The dogs were divided into three groups of 12 dogs so that each group was alike in age, sex and ability distribution. A treatment was randomly assigned to each group by drawing from a hat. Group “A” was assigned about 400 mg Vitamin E/day, group “B” was assigned about 2 mg Astaxanthin/day and group “C” was assigned about 500 mg maltodextrin as a placebo. The people responsible for feeding, care, and training of the dogs were blind as to the identity of treatments until the completion of the study. Dogs were treated for six weeks before the onset of testing. They were also trained lightly for two sessions per week during this time period. Training sessions consisted of walking at 14 kilometers per hour for 2 hours in a 40-foot diameter circle tethered to a dog-walking wheel.
(§4) The testing took place over a six day period. On day one, pre-exercise blood samples were drawn from all the dogs. On day two, the dogs ran twelve km while pulling an all terrain vehicle (ATV) weighing 500 pounds. On day three, the dogs walked 16 miles on the dog wheel. On day four, the dogs again pulled the ATV for a distance of 12 kilometers. Immediately after exercise on day four, blood samples were drawn. Additional blood samples were drawn again at 24 hours and 48 hours after exercise. This sampling schedule was designed to examine changes in the parameters measured during exercise and during recovery. Samples were obtained by jugular venipuncture and collected into evacuated glass tubes containing sodium EDTA as an anticoagulant. Once collected they were kept on ice for not more than 10 minutes before they were centrifuged at 10,000 revolutions per minute (RPM) in 4° C. for a period of 10 minutes. The plasma was transferred into freezer vials where the dead space was replaced with gaseous nitrogen to decrease further oxidation during storage. The vials were then capped and immediately quenched in liquid nitrogen. The vials were recovered from liquid nitrogen and stored at −70° C. until analyzed. Each plasma sample was analyzed for malondialdehyde concentration using a standard HPLC, F2-isoprostane concentration utilizing a mass spectrometer and standard ELISA, Vitamin E concentration utilizing a standard HPLC, and Oxidative Radical Absorbance Capacity (ORAC test kit, Oxford Co.
(§5) F2 isoprostane and CK data was evaluated using a two way ANOVA for repeated measures. Post hoc comparisons were made using a student's t test corrected for repeated measures by the Bonneferroni method. Statistical significance was set at p<0.05. The other data was also evaluated using ANOVA. The abbreviation “se” used with respect to the data in the tables below refers to standard error.

malondialdehyde = test: Plasma malondialdehyde (MDA) in exercising sled dogs; format: in vivo, dog
Method: as §1, §2, §3, §4, §5

F2-isoprostane = test: Plasma F2-isoprostane (F2I) in exercising sled dogs; format: in vivo, dog; settings: for Plasma F2I compared to the placebo group: in words
Method: as §1, §2, §3, §4, §5

total ORAC = test: Plasma total Oxidative Radical Absorptive Capacity (ORAC) in exercising sled dogs; format: in vivo, dog; settings: for ORAC improvement by supplementation: any of the time periods measured, in words
Method: as §1, §2, §3, §4, §5

Creatine Kinase = test: Plasma creatine kinase (CK) in exercising sled dogs; format: in vivo, dog
Method: as §1, §2, §3
as §4, with “The plasma was transferred into freezer vials where the dead space was replaced with gaseous nitrogen to decrease further oxidation during storage. The vials were then capped and immediately quenched in liquid nitrogen.” left out
F2 isoprostane and CK data was evaluated using a two way ANOVA for repeated measures. […] The other data was also evaluated using ANOVA. […]

[2] = system: canine lens epithelial cells; test: UV-stressed canine lens epithelial cells supplemented with astaxanthin; format: cell-based
Source text: An in vitro experiment may be performed using canine lens epithelial cells supplemented with astaxanthin at physiological levels.

cataract formation = test: In vivo cataract formation study, slit-lamp test; design: species or system dog; settings: dogs, e.g. two year study; astaxanthin optionally with Vitamin E, lutein, zeaxanthin, zinc
Source text: In a model study, 40 dogs could be chosen and randomly allocated to either the control group or to a treatment group receiving AAFCO recommended levels of antioxidants. The treatment group would receive astaxanthin and may also receive one or more of Vitamin E, lutein, zeaxanthin and zinc.

[3] = system: peripheral blood mononuclear cells (PBMCs); test: In vitro lymphoproliferation of stimulated PBMC; format: cell-based, dog; settings: astaxanthin added directly to the media during stimulation
[4] = system: natural killer (NK) cells; test: NK cell cytotoxicity of cells from animals fed astaxanthin; format: in vivo, dog; settings: animals fed a diet containing astaxanthin vs control animals
Method: (§6) To assess the effect of astaxanthin supplementation on immune function, dogs may be fed a diet containing astaxanthin and/or Vitamin E for 16 weeks. The amount of astaxanthin used may be 0, 1, 5, 10, 20, and 40 mg per animal per day. Various assays may be performed to assess immune function.
In another assay, natural killer (NK) cell cytotoxicity is assessed for NK cells isolated from animals that are fed a diet including astaxanthin supplementation.

[5] = Delayed-type hypersensitivity skin reactions; format: in vivo, dog; settings: animals fed a diet containing astaxanthin vs control animals
Method: as §6
Delayed-type hypersensitivity may also be assessed in animals given a diet supplemented with astaxanthin. In these assays, control animals and animals fed a diet containing astaxanthin are given cutaneous injections of saline, a mitogen or a vaccine of distemper virus. The animals are then assessed to measure the skin reactions to mitogen, virus and control. In animals fed a diet containing astaxanthin, the skin reactions are more robust for virus and mitogen than that found in control animals.

[6] = Antibody titers against an antigen; format: in vivo, dog; settings: animals fed a diet containing astaxanthin vs control animals
Method: as §6
Control animals and animals fed a diet containing astaxanthin may also be assessed for the robustness of the immune response against an antigen. For example, antibody titers against an antigen may be measured for control animals and animals fed a diet containing astaxanthin.

osteoarthritis = test: Osteoarthritis diet study: plasma and synovial fluid markers, gait; format: in vivo, dog
Source text: A diet supplemented with astaxanthin may be shown to reduce inflammation and associated pain in osteoarthritis. […] At 12 weeks of treatment, plasma and synovial fluid samples are taken from each animal and assayed for total antioxidant activity, and levels of malionaldehyde, prostaglandin, isoprostanes, MMPs and TIMPs. Additionally, the gait of the dogs may be assessed using standard force plate analyses.

[7] = cited from earlier work
[8] = reported; in words; cited from earlier work
[9] = in words; cited from earlier work
[10] = Pre-ex, sled dogs, about 2 mg astaxanthin/day or about 400 mg Vitamin E/day for six weeks

CC1=C(/C=C/C(C)=C/C=C/C(C)=C/C=C/C=C(C)/C=C/C=C(C)/C=C/C2=C(C)C(=O)[C@@H](O)CC2(C)C)C(C)(C)C[C@H](O)C1=O [ATX, astaxanthin]
Plasma Vitamin E concentration compared between treatment groups ([1]; dog, in vivo): no significant difference | Plasma MDA (mean) (malondialdehyde; 24 hour post, same treatment): 0.95 | Plasma MDA compared between treatment groups (malondialdehyde; 24 hours post exercise, in words): lower than either the placebo value or the Vitamin E value | Change in Plasma MDA from Baseline (malondialdehyde; Pre to 48 hour Post): −0.004 | Plasma F2 Isoprostane concentration (mean) (F2-isoprostane; 24 hour post, same treatment): 90 | Plasma F2 Isoprostane concentration (mean) (F2-isoprostane; 48 hour post, same treatment): 66 | Plasma F2 Isoprostane concentration (mean) (F2-isoprostane; Post-ex, same treatment): 52 | Plasma F2I compared to the placebo group (F2-isoprostane): lower F2I values immediately post-exercise and at 24 hours post-exercise | Plasma total ORAC (mean) (total ORAC; 24 hour post, same treatment): 5700 | Plasma total ORAC (mean) (total ORAC; 48 hour post, same treatment): 4800 | ORAC improvement by supplementation (total ORAC): not improved | Plasma CK compared to the Vitamin E group (Creatine Kinase; all time periods but 24 hours post-exercise, in words): lower CK values than the Vitamin E group | free radical formation and lipid peroxidation products ([2]; canine lens epithelia stressed with UV light, astaxanthin at physiological levels): significantly reduce | cell death ([2]; canine lens epithelial cells stressed with UV light): significantly less cell death | cataract formation and severity (slit-lamp test) (cataract formation): control group has significantly more cataract formation | proliferation of PBMC [3]: increases proliferation of cells significantly more | NK cytotoxicity [4]: significantly increased | skin reactions to virus and mitogen (delayed-type hypersensitivity) [5]: more robust | antibody titers against an antigen [6]: higher antibody titers | gait (force plate analyses) (osteoarthritis; 12 weeks, compared to controls): significant improvement in gait | isoprostanes, total antioxidant activity and MMPs (osteoarthritis; plasma and synovial fluid, 12 weeks, 1, 5, 10, 20, or 40 mg per animal per day): decrease | in vitro oxygen radical absorptive capacity relative to Vitamin E [7]: 4 times | potency in preventing lipid peroxidation and scavenging free radicals [8]: more potent than Vitamin E or Vitamin C | solubility (lipid / water compartments of the cell) [9]: soluble in both lipid and water compartments of the cell

Cc1c(C)c2c(c(C)c1O)CC[C@@](C)(CCC[C@H](C)CCC[C@H](C)CCCC(C)C)O2 [Vitamin E, alpha-tocopherol]
Plasma Vitamin E (mean) ([1]; 24 hour post, same treatment): 4720 | Plasma Vitamin E (mean) ([1]; 48 hour post, same treatment): 4520 | Plasma Vitamin E (mean) ([1]; Post-ex, same treatment): 3540 | Plasma Vitamin E (mean) [1, 10]: 3370 | Plasma Vitamin E concentration compared between treatment groups ([1]; all time periods, in words): greatest | Plasma MDA (mean) (malondialdehyde; 24 hour post, same treatment): 1.44 | Plasma MDA (mean) (malondialdehyde; 48 hour post, same treatment): 1.44 | Plasma MDA (mean) (malondialdehyde; Post-ex, same treatment): 1.17 | Change in Plasma MDA from Baseline (malondialdehyde; Pre to 24 hour post): −0.071 | Change in Plasma MDA from Baseline (malondialdehyde; Pre to 48 hour Post): −0.069 | Change in Plasma MDA from Baseline (malondialdehyde; Pre to Post): −0.336* | Plasma MDA (mean) (malondialdehyde; [10]): 1.51 | Plasma F2 Isoprostane concentration (mean) (F2-isoprostane; 24 hour post, same treatment): 130 | Plasma F2 Isoprostane concentration (mean) (F2-isoprostane; 48 hour post, same treatment): 78 | Plasma F2 Isoprostane concentration (mean) (F2-isoprostane; Post-ex, same treatment): 223 | Plasma F2 Isoprostane concentration (mean) (F2-isoprostane; [10]): 144 | Plasma F2I compared to the placebo group (F2-isoprostane): not different from the placebo value except at the 24 hour post-exercise time period where it was lower | Plasma total ORAC (mean) (total ORAC; 24 hour post, same treatment): 7590 | Plasma total ORAC (mean) (total ORAC; 48 hour post, same treatment): 4840 | Plasma total ORAC (mean) (total ORAC; Post-ex, same treatment): 5850 | Plasma total ORAC (mean) (total ORAC; [10]): 7480 | ORAC improvement by supplementation (total ORAC): not improved | Plasma Creatine Kinase (mean) (Creatine Kinase; 24 hour post, same treatment): 184 | Plasma Creatine Kinase (mean) (Creatine Kinase; 48 hour post, same treatment): 204 | Plasma Creatine Kinase (mean) (Creatine Kinase; Post-ex, same treatment): 208 | Plasma Creatine Kinase (mean) (Creatine Kinase; [10]): 139 | solubility (lipid / water compartments of the cell) [9]: lipid soluble only
